Reference: US7678368B2, “Fucoidan-containing cosmetics” (Takara Bio Inc., priority 1999, dated 2010)

Key:
C3H/He mice [1] = test: Trichogenous ratio, Fucoidan Bf combined with carpronium chloride or minoxidil (Example 19); format: in vivo, mouse; conditions: for Trichogenous Ratio (%) (Trichogenous Area/Shaved Area): 200 μL once a day, 6 cases; for Trichogenous Ratio (%) (Trichogenous Area/Shaved Area) / Number of Individuals with Trichogenous Ratio of 60% or More: twenty-first day after shaving
Method: Male C3H/He mice were purchased from Nippon SLC and used for an experiment from 8 week-old after pre-breeding the mice. The hair on the backside of each mouse was cut with hair clippers, and thereafter shaved with a razor. […] The resulting ethanol solution was applied onto the above hair-cut site of the backside of the mice in an amount of 200 μL per mouse. To the control group, 30% ethanol solution was similarly applied. The mice were administered once a day, for consecutive days. The administered sites were observed over the passage of time from the day of the beginning of administration (the day following the shaving), and the trichogenous area was determined on the twenty-first day after shaving and expressed as the ratio (%) to the shaved area.

C3H/He mice [2] = test: Hair restoring effect of sulfated monosaccharides, scoring as in Example 13(3) (Example 14(2)); format: in vivo, mouse; conditions: 3% in 50% ethanol, 200 μL once a day, score 0-4
Method: The administered site was observed over the passage of time from the beginning of administration, and a change in the skin color tone was evaluated by scoring. Specifically, the scoring criteria were defined as follows: Score 0: no change in the skin color, Score 1: the skin color being changed to blue, Score 2: the skin color being changed to black-blue to gray, Score 3: trichogenous state being observed, and Score 4: the state before the hair cutting being almost restored. (3) Male C3H/He mice were purchased from Nippon SLC and used for an experiment from 8 week-old after pre-breeding the mice. The hair on the backside of each mouse was cut with hair clippers, and thereafter shaved with a razor. (2) The hair restoring effect of the sulfated glucose prepared in item (1) of Example 14 was studied in the same manner as in item (3) of Example 13. Here, the sulfated glucose was dissolved in 50% ethanol in a concentration of 3%, and the resulting solution was applied onto the backside of the mice once a day in an amount of 200 μL per mouse. To the control group, 50% ethanol alone was applied. […] In addition, similar tests were carried out for the sulfated fucose, the sulfated mannose, the sulfated galactose, the sulfated xylose, the sulfated 2-deoxy-glucose and the sulfated talose.

[3] = test system: whiskers with the hair follicles of C3H/He mice; test: Culture of mouse whiskers with hair follicles, length of grown whisker (Examples 15-18); format: cell-based; conditions: whiskers of 6 day-old mice (Table 14)
Source text: (1) Two day-old male C3H/He mice were purchased from Nippon SLC together with the mother mice and used for an experiment from 5 day-old. The mice were sacrificed by exsanguination, and the whiskers together with the subcutaneous tissues were collected using scissors and tweezers. Further, the whiskers with the hair follicles were separated in a petri dish under the microscope according to the method by Ogawa et al. (J. Invest. Dermatol 103: 306-309, 1994). Fourteen to sixteen whiskers were collected from the right and left sides per mouse. […] Here, the given concentrations of each sample added are respectively expressed as the concentration per mL medium (mg/mL) in Table 10. […] The length of whisker was determined to the order of 0.1 mm before the beginning and after the termination of the culture under the microscope using a caliper. […] In addition, Student's t-test was used for test of significance, and P value was determined against the control group. […] The hair restoring effects for the fucoidan derived from Kjellmaniella crassifolia described in item (1) of Example 1 and 7-12SFd-F described in item (3) of Example 2 were evaluated in the same manner as in item (1) of Example 15. […] The hair restoring effects for Fucoidan Bf described in item (1) of Example 16 and F-rich fucoidan described in item (2) of Example 16 were evaluated in the same manner as in item (1) of Example 15. […]

Molecule: Nc1cc(N2CCCCC2)nc(N)[n+]1[O-] [Minoxidil, minoxidil]
- Trichogenous Ratio (%) (Trichogenous Area/Shaved Area) (C3H/He mice [1]; 0.1% in 30% ethanol): 42.9 ± 5.5%
- Number of Individuals with Trichogenous Ratio of 60% or More (C3H/He mice [1]; 0.1% in 30% ethanol): 1/6
- Trichogenous Ratio (%) (Trichogenous Area/Shaved Area) (C3H/He mice [1]; 1% in 30% ethanol): 69.1 ± 13.9%
- Number of Individuals with Trichogenous Ratio of 60% or More (C3H/He mice [1]; 1% in 30% ethanol): 4/6

Molecule: COC(=O)CCC[N+](C)(C)C.[Cl-] [Carpronium Chloride, carpronium chloride]
- Trichogenous Ratio (%) (Trichogenous Area/Shaved Area) (C3H/He mice [1]; 0.5% in 30% ethanol): 23.9 ± 4.9%
- Number of Individuals with Trichogenous Ratio of 60% or More (C3H/He mice [1]; 0.5% in 30% ethanol): 0/6
- hair restoring effect (C3H/He mice [1]; administration by application alone (0.5%)): No hair restoring effect

Molecule: sulfated (—SO3—Na^+) D-(+)-glucose [Sulfated Glucose]
- Average Score (C3H/He mice [2]; duration of administration 11 days): 0.6
- Average Score (C3H/He mice [2]; duration of administration 12 days): 0.6
- Average Score (C3H/He mice [2]; duration of administration 13 days): 1.0
- Average Score (C3H/He mice [2]; duration of administration 14 days): 1.6
- Average Score (C3H/He mice [2]; duration of administration 15 days): 1.8
- Length of Grown Whisker (mm) (Average Value ± Standard Error) ([3]; 0.1 mg/mL): 0.39 ± 0.11 mm
- Length of Grown Whisker (mm) (Average Value ± Standard Error) ([3]; 1 mg/mL): 1.31 ± 0.31 mm
